Results reported in PubChem BioAssay AID330 (DTP/NCI, 2004).
Several values for one entry are separate records, joined by “and”; a condition that tells them apart may be missing. Equal entries are not always repeated. Toxic doses and inconclusive results are not listed.

Tested on: P388 leukemia ip, CD2F1 mice, survival T/C
Assay: NCI In Vivo Anticancer Drug Screen. Data for tumor model P388 Leukemia (intraperitoneal) in CD2F1 (CDF1) mice
Details: endpoint: median survival time, higher = longer survival
Procedure, shortened: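 Mice carrying the transplanted tumor received test compound or vehicle. Survival was recorded in each group, and the value is the treated-group measurement divided by that of the vehicle-treated control group.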

[1] = dose: 60.0 mg/kg/injection, schedule: Q01DX005 (ip), vehicle: saline with Tween-80
[2] = dose: 120.0 mg/kg/injection, schedule: Q01DX005 (ip), vehicle: saline with Tween-80
[3] = dose: 240.0 mg/kg/injection, schedule: Q01DX005 (ip), vehicle: saline with Tween-80
[4] = dose: 25.0 mg/kg/injection, schedule: Q01DX005 (ip), vehicle: Klucel (hydroxypropylcellulose) (HPC)
[5] = dose: 50.0 mg/kg/injection, schedule: Q01DX005 (ip), vehicle: Klucel (hydroxypropylcellulose) (HPC)
[6] = dose: 100.0 mg/kg/injection, schedule: Q01DX005 (ip), vehicle: Klucel (hydroxypropylcellulose) (HPC)
[7] = dose: 50.0 mg/kg/injection, schedule: Q01DX009 (ip), vehicle: Klucel (hydroxypropylcellulose) (HPC)
[8] = dose: 100.0 mg/kg/injection, schedule: Q01DX009 (ip), vehicle: Klucel (hydroxypropylcellulose) (HPC)
[9] = dose: 25.0 mg/kg/injection, schedule: Q01DX009 (ip), vehicle: saline with Tween-80
[10] = dose: 50.0 mg/kg/injection, schedule: Q01DX009 (ip), vehicle: saline with Tween-80
[11] = dose: 200.0 mg/kg/injection, schedule: Q01DX009 (ip), vehicle: saline with Tween-80
[12] = dose: 50.0 mg/kg/injection, schedule: Q01DX005 (ip), vehicle: saline with Tween-80
[13] = dose: 100.0 mg/kg/injection, schedule: Q04DX003 (ip), vehicle: saline
[14] = dose: 200.0 mg/kg/injection, schedule: Q04DX003 (ip), vehicle: saline
[15] = dose: 50.0 mg/kg/injection, schedule: Q01DX005 (ip), vehicle: saline
[16] = dose: 100.0 mg/kg/injection, schedule: Q01DX005 (ip), vehicle: saline
[17] = dose: 100.0 mg/kg/injection, schedule: Q01DX009 (ip), vehicle: saline with Tween-80
[18] = dose: 6.25 mg/kg/injection, schedule: Q01DX009 (ip), vehicle: water
[19] = dose: 12.5 mg/kg/injection, schedule: Q01DX009 (ip), vehicle: water
[20] = dose: 25.0 mg/kg/injection, schedule: Q01DX009 (ip), vehicle: water
[21] = dose: 50.0 mg/kg/injection, schedule: Q01DX009 (ip), vehicle: water
[22] = dose: 200.0 mg/kg/injection, schedule: Q01DX005 (ip), vehicle: Klucel (hydroxypropylcellulose) (HPC)
[23] = dose: 100.0 mg/kg/injection, schedule: Q01DX005 (ip), vehicle: saline with Tween-80
[24] = dose: 200.0 mg/kg/injection, schedule: Q01DX005 (ip), vehicle: saline with Tween-80

## COc1nc(NC2OCC(O)C(O)C2O)c(Cl)c(=O)n1C (centres undefined)
[1]
  T/C: 93 % of control
[2]
  T/C: 90 % of control
[3]
  T/C: 100 % of control

## CCOc1cc2c(cc1Cc1c(OC)cc(OC)cc1OC)OCO2
[1]
  T/C: 90 % of control
[3]
  T/C: 99 % of control

## Cc1ccc(C)c2c1C(O)(C#Cc1ccccc1)c1c(C)ccc(C)c1C2(O)C#Cc1ccccc1 (centres undefined)
[4]
  T/C: 90 % of control
[5]
  T/C: 93 % of control
[6]
  T/C: 86 % of control

## CSC1=NC=C(C#N)C2=NC(c3ccc(Cl)cc3)NN12 (centres undefined)
[1]
  T/C: 90 % of control
[2]
  T/C: 93 % of control
[3]
  T/C: 94 % of control

## O=S(=O)(Nc1ccc2ccc3cccc4ccc1c2c34)c1ccccc1
[7]
  T/C: 98 % of control
[8]
  T/C: 100 % of control
dose: 200.0 mg/kg/injection, schedule: Q01DX009 (ip), vehicle: Klucel (hydroxypropylcellulose) (HPC)
  T/C: 100 % of control

## NC(Cc1ccc(O)cc1)C(=O)OC1CCCCC1 (centres undefined)
dose: 25.0 mg/kg/injection, schedule: Q04DX003 (ip), vehicle: saline with Tween-80
  T/C: 107 % of control
dose: 50.0 mg/kg/injection, schedule: Q04DX003 (ip), vehicle: saline with Tween-80
  T/C: 110 % of control
dose: 100.0 mg/kg/injection, schedule: Q04DX003 (ip), vehicle: saline with Tween-80
  T/C: 100 % of control
dose: 200.0 mg/kg/injection, schedule: Q04DX003 (ip), vehicle: saline with Tween-80
  T/C: 96 % of control
dose: 400.0 mg/kg/injection, schedule: Q04DX003 (ip), vehicle: saline with Tween-80
  T/C: 95 % of control

## Cc1nc(C(=O)NO)c2ccccc2n1
dose: 12.5 mg/kg/injection, schedule: Q01DX009 (ip), vehicle: saline with Tween-80
  T/C: 102 % of control
[9]
  T/C: 102 % of control
[10]
  T/C: 98 % of control and 97 % of control
[11]
  T/C: 103 % of control

## Nc1snnc1C(=S)NC=S
dose: 100.0 mg/kg/injection, schedule: Q01DX001 (ip), vehicle: saline
  T/C: 102 % of control
dose: 200.0 mg/kg/injection, schedule: Q01DX001 (ip), vehicle: saline
  T/C: 105 % of control
dose: 400.0 mg/kg/injection, schedule: Q01DX001 (ip), vehicle: saline
  T/C: 100 % of control

## CCCCCCCCCCCC1N=C(N)N=C(N)N1c1cccc(Br)c1 (centres undefined)
dose: 12.5 mg/kg/injection, schedule: Q01DX005 (ip), vehicle: saline with Tween-80
  T/C: 100 % of control
dose: 25.0 mg/kg/injection, schedule: Q01DX005 (ip), vehicle: saline with Tween-80
  T/C: 112 % of control
[12]
  T/C: 97 % of control

## S=C(Nc1ccccc1)Nc1ncccn1
[7]
  T/C: 111 % of control
[8]
  T/C: 99 % of control

## CC(C)C[N+]1(Cc2ccc(Cl)cc2Cl)CCOCC1
[13]
  T/C: 101 % of control
[14]
  T/C: 93 % of control

## CN1CC(F)OC(F)(F)C1 (centres undefined)
[15]
  T/C: 102 % of control
[16]
  T/C: 100 % of control
dose: 200.0 mg/kg/injection, schedule: Q01DX005 (ip), vehicle: saline
  T/C: 100 % of control

## C=CCN(N=Nc1ccc(Cl)cc1)c1ccc(Cl)cc1
[9]
  T/C: 104 % of control and 91 % of control
[10]
  T/C: 107 % of control and 117 % of control
[17]
  T/C: 108 % of control and 111 % of control
[11]
  T/C: 110 % of control and 117 % of control and 118 % of control

## O=NNc1nc(-c2ccccc2)ns1
dose: 1.56 mg/kg/injection, schedule: Q01DX009 (ip), vehicle: water
  T/C: 100 % of control
dose: 3.12 mg/kg/injection, schedule: Q01DX009 (ip), vehicle: water
  T/C: 100 % of control and 101 % of control
[18]
  T/C: 104 % of control and 97 % of control
[19]
  T/C: 100 % of control and 97 % of control
[20]
  T/C: 101 % of control and 97 % of control
[21]
  T/C: 100 % of control

## CC12CCC(CC1=O)C2(C)CC#N (centres undefined)
dose: 7.5 mg/kg/injection, schedule: Q01DX005 (ip), vehicle: saline
  T/C: 101 % of control
dose: 15.0 mg/kg/injection, schedule: Q01DX005 (ip), vehicle: saline
  T/C: 100 % of control

## OCC1OC(n2cc(I)c3c2ncn2nnnc32)C(O)C1O (centres undefined)
dose: 3.13 mg/kg/injection, schedule: Q01DX009 (ip), vehicle: water
  T/C: 99 % of control
[18]
  T/C: 100 % of control
[19]
  T/C: 97 % of control
[20]
  T/C: 97 % of control
[21]
  T/C: 89 % of control

## COc1cccc2c1C(=N)c1c(O)c3c(c(O)c1C2=O)C[C@@](O)(C(=O)CO)C[C@@H]3OC1CC(N)C(O)C(C)O1 (some centres undefined)
dose: 1.56 mg/kg/injection, schedule: Q04DX003 (ip), vehicle: water
  T/C: 115 % of control
dose: 3.13 mg/kg/injection, schedule: Q04DX003 (ip), vehicle: water
  T/C: 118 % of control
dose: 6.25 mg/kg/injection, schedule: Q04DX003 (ip), vehicle: water
  T/C: 122 % of control
dose: 25.0 mg/kg/injection, schedule: Q04DX003 (ip), vehicle: water
  T/C: 155 % of control and 163 % of control
dose: 50.0 mg/kg/injection, schedule: Q04DX003 (ip), vehicle: water
  T/C: 173 % of control and 188 % of control
dose: 100.0 mg/kg/injection, schedule: Q04DX003 (ip), vehicle: water
  T/C: 194 % of control and 217 % of control
dose: 150.0 mg/kg/injection, schedule: Q04DX003 (ip), vehicle: water
  T/C: 165 % of control

## C=C/C=C\CN(C)Cc1ccccc1
dose: 12.5 mg/kg/injection, schedule: Q01DX005 (ip), vehicle: saline
  T/C: 99 % of control
dose: 25.0 mg/kg/injection, schedule: Q01DX005 (ip), vehicle: saline
  T/C: 105 % of control
[15]
  T/C: 106 % of control and 108 % of control
[16]
  T/C: 101 % of control

## Cc1cccc(C)c1NC1c2ccccc2C=Cc2ccccc21
[10]
  T/C: 87 % of control
[17]
  T/C: 89 % of control

## CNC(=O)N(C)C(C)=O
[13]
  T/C: 123 % of control and 94 % of control
[14]
  T/C: 99 % of control and 124 % of control

## CC1=NN(C(C)(C)C)[Si]2(C(C)(C)C)C1[Si]1(C(C)(C)C)C2C(C)=NN1C(C)(C)C (centres undefined)
[4]
  T/C: 92 % of control
[5]
  T/C: 86 % of control
[6]
  T/C: 90 % of control
[22]
  T/C: 90 % of control

## COc1cccc2c1C(=O)c1c(O)c3c(c(O)c1C2=O)CC(O)(C(=O)COc1ccccc1)CC3OC1CC(NC(=O)C(F)(F)F)C(O)C(C)O1 (centres undefined)
dose: 1.56 mg/kg/injection, schedule: Q01DX009 (ip), vehicle: other
  T/C: 98 % of control and 102 % of control
dose: 3.13 mg/kg/injection, schedule: Q01DX009 (ip), vehicle: other
  T/C: 102 % of control and 110 % of control
dose: 12.5 mg/kg/injection, schedule: Q01DX009 (ip), vehicle: other
  T/C: 105 % of control
dose: 25.0 mg/kg/injection, schedule: Q01DX009 (ip), vehicle: other
  T/C: 114 % of control

## CCCCCCCC[As](CCCCCCCC)SCC1OC(OC(C)=O)C(OC(C)=O)C(OC(C)=O)C1OC(C)=O (centres undefined)
[10]
  T/C: 101 % of control
[17]
  T/C: 96 % of control
[11]
  T/C: 99 % of control

## CCCCCCCCOC(=O)c1[nH]cnc1/N=N\N(C)C
dose: 100.0 mg/kg/injection, schedule: Q04DX003 (ip), vehicle: Klucel (hydroxypropylcellulose) (HPC)
  T/C: 109 % of control
dose: 200.0 mg/kg/injection, schedule: Q04DX003 (ip), vehicle: Klucel (hydroxypropylcellulose) (HPC)
  T/C: 113 % of control
dose: 400.0 mg/kg/injection, schedule: Q04DX003 (ip), vehicle: Klucel (hydroxypropylcellulose) (HPC)
  T/C: 104 % of control

## Fc1cccc(C(Nc2nncs2)Nc2nncs2)c1F
[12]
  T/C: 99 % of control
[23]
  T/C: 93 % of control
[24]
  T/C: 93 % of control

## CCC(=O)c1ccc(Oc2c3ccccc3nc3ccccc23)cc1
[12]
  T/C: 108 % of control
[23]
  T/C: 117 % of control
[24]
  T/C: 110 % of control

## Cc1cc(-c2cc(C)on2)no1
dose: 60.0 mg/kg/injection, schedule: Q01DX005 (ip), vehicle: saline
  T/C: 103 % of control
dose: 120.0 mg/kg/injection, schedule: Q01DX005 (ip), vehicle: saline
  T/C: 103 % of control
dose: 240.0 mg/kg/injection, schedule: Q01DX005 (ip), vehicle: saline
  T/C: 103 % of control

## NP1(N)=NP(N)(N)=NP(N)(N)=NP(N)(N)=N1
[5]
  T/C: 96 % of control
[6]
  T/C: 96 % of control
[22]
  T/C: 99 % of control
